Measured values as given in patent US20250074902A1, “FUSED BICYCLIC HETEROARYL AMIDE COMPOUND AS PROTEIN AGGREGATION INHIBITOR” (SHANGHAI JINGXIN BIOMEDICAL CO., LTD., priority 2021, published 2025).

What was measured:
[1] = biological target: T1, α-synuclein (Homo sapiens, UniProt P37840); test: Detection of the ability of compounds to inhibit α-synuclein self-aggregation by HPLC; type: biochemical; conditions: test compound 200 μg/mL, α-synuclein 250 μg/ml, 37° C., 9 days; HPLC peak area of α-synuclein multimers vs model group; read-out: inhibition rate (%)
T1 construct: purchased Sino Biological
Method: The test compound (for poorly soluble compounds, dissolve with an appropriate amount of DMSO first) and fresh α-synuclein monomers (purchased from Sino Biological) were added to pure water to a final protein concentration of 250 μg/ml, and the concentration of the test compound was 200 μg/mL, followed by incubation at 37° C. for 9 days. The peak area of α-synuclein multimers after incubation was detected by HPLC and the inhibition rate was calculated. […] Inhibition rate=(peak area of model group−peak area of example group)/peak area of model group×100%.

[2] = Determination of brain/plasma ratio; type: in vivo; conditions: mouse, male C57BL/6 mice, oral 10 mg/kg, ratio of average drug concentration in brain tissue to plasma
Method: Male C57BL/6 mice were used as research subjects, and brain perfusion technology was used to investigate the pharmacokinetic characteristics of the compound of the present invention transported through the blood-brain barrier, and the drug concentrations in the blood and brain tissue samples of mice after 0.25 h, 1 h, 4 h and 8 h were detected, and the ratio of the average drug concentrations in brain tissue and plasma was calculated.
Oral administration solution (1.000 mg·ml^−1) of the compound of the present invention was prepared:
Weigh 3.116 mg of the compound and place it in an EP tube, then add DMS 0.156 mL, Solutol 0.312 mL and ultrapure water 2.648 mL (the volume ratio of the three is 5:10:85, v:v:v), vortex ultrasound to fully dissolve it, and the final actual concentration is 1.000 mg·mL-1 of the clear administration solution.
C57BL/6 mice (male), purchased from Sibeifu (Beijing) Biotechnology Co., Ltd., experimental animal production license number: SCXK (Beijing) 2019-0010.
Fasting: Overnight fasting, no water withdrawal, feed provided 4 hours after medication.
Select qualified healthy C57BL/6 mice, 3 per group. After oral administration (10 mg/kg), about 150 μL of whole blood was collected from the orbital venous plexus of mice at 0.25 h, 1 h, 4 h and 8 h after medication and placed in a centrifuge tube containing EDTA-K2 anticoagulant. After administration, the mice were anesthetized about 1 minute before the scheduled time point, and brain perfusion was performed at 0.25 h, 1 h, 4 h and 8 h after administration. After perfusion, the mouse brain tissue samples were dissected with ophthalmic scissors and ophthalmic forceps, and the remaining blood on the tissue surface was immediately rinsed with ultrapure water within 5 min, wiped dry, weighed, and 4 times the volume of acetonitrile-water solution (10:90, v:v) was added and homogenized, and then the homogenate was placed in a −20° C. refrigerator for testing. The collected samples were placed in an ice bath during the entire experimental operation.
According to the time points specified in the above experimental protocol, about 150 μL of whole blood was collected from the orbital venous plexus of C57BL/6 mice after administration and placed in a 1.5 mL centrifuge tube containing EDTAN-K2. The collected whole blood was centrifuged at 2000 g, 4° C. for 10 min, and all plasma was divided and placed in another clean centrifuge tube, and then placed in a −20° C. refrigerator for testing.
Adjust the peristaltic pump device to ensure that it works normally, the liquid flows out smoothly and stably, and there is no air in the flow path. Anesthetize the mice after administration with a mixed anesthetic of 70% CO2 and 30% O2, After the animal is fully anesthetized, quickly open the chest cavity with surgical scissors to expose the heart. […] Turn on the peristaltic pump switch and perfuse for 2-5 minutes. The perfusion fluid is 100 U/1000 mL heparin sodium saline. After the perfusion is completed, use ophthalmic scissors and ophthalmic forceps to dissect the mouse brain tissue sample, immediately rinse the remaining blood on the tissue surface with ultrapure water within 5 minutes, wipe dry, weigh, add 4 times the volume of acetonitrile-water solution (10:90, v:v) and homogenize, and then place the homogenate in a −20° C. refrigerator for testing.
Calculate the ratio of the average drug concentration in brain tissue to that in plasma, i.e., the brain/plasma ratio.

[3] = Determination of half-life in C57BL/6 mice; type: in vivo; conditions: mouse, 2 mg/kg; male C57BL/6 mice, intravenous, 2 mpk, plasma
Method: C57BL/6 mice (male) were selected, and the compound of the present invention was intravenously administered at a dose of 2 mpk, About 0.03 mL of whole blood was collected from the mouse orbital venous plexus at 0 h before administration, 0.0833, 0.25, 0.5, 1, 2, 4, 6, 8 and 24 h after administration. The blood was placed in a centrifuge tube containing EDTA-K2 anticoagulant, and placed in crushed ice after collection. Centrifuge at 2000 g and 4° C. for 10 min within 0.5 hours, and 10 μL of plasma was quantitatively divided and placed in another clean centrifuge tube, placed in a −20° C. refrigerator, and the blood drug concentration was determined by LC-MS/MS method.

- inhibition at 200 µg/mL [1]: 98.6%
- Kp at 4 h [2]: 1.7
- half-life [3]: 1.32 h
Compound: CCCC[C@H](Cc1c[nH]c2ccccc12)NC(=O)c1cc2ccc(N3CCN(C)CC3)cc2s1 [Example 43, (R)—N-(1-(1H-indol-3-yl)hexane-2-yl)-6-(4-methylpiperazin-1-yl) benzo[b]thiophene-2-carboxamide]
